Data from patent US20070066801A1 (priority 2003, published 2007).

Test system: mutant F. novicida knock-outs
Format: binding, Francisella novicida

In the case of TSITPWFFLSRP [phage 4-4-2], the “expected binding of phage to knock-out mutants inactivated for the cell surface marker” value is reported as “absence of specific binding”.
